Results filed as inconclusive are left out.
Test system: nude mice, HT29 intrarenal xenograft, tumor weight T/C
Experiment: NCI In Vivo Anticancer Drug Screen. Data for tumor model HT29;CX-1 Human Adenocarcinoma (MER+) (intrarenal inoculation) in NU/NU Swiss (nude) mice
Details: endpoint: mean tumor weight change, higher = larger tumour
Summary of the method: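 Endpoint measured as tumor size or survival; ratio reported is treated group over vehicle controls.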

[1] = dose: 150.0 mg/kg/injection, schedule: Q04DX004 (sc), vehicle: saline with Tween-80
[2] = dose: 600.0 mg/kg/injection, schedule: Q04DX004 (sc), vehicle: saline with Tween-80
[3] = dose: 200.0 mg/kg/injection, schedule: Q04DX004 (sc), vehicle: Klucel (hydroxypropylcellulose) (HPC)

Compound: O=CC(S)CO (stereo not drawn)
- T/C (dose: 100.0 mg/kg/injection, schedule: Q04DX004 (sc), vehicle: suspension in saline): 92 % of control
- T/C (dose: 200.0 mg/kg/injection, schedule: Q04DX004 (sc), vehicle: suspension in saline): 69 % of control
- T/C (dose: 400.0 mg/kg/injection, schedule: Q04DX004 (sc), vehicle: suspension in saline): 101 % of control
- T/C (dose: 800.0 mg/kg/injection, schedule: Q04DX004 (sc), vehicle: suspension in saline): 72 % of control

Compound: CC1OC1C(=O)C1(O)C(C)C(O)C23OC2(C(O)c2c(O)cccc2C3=O)C1O (stereo not drawn)
- T/C (dose: 12.0 mg/kg/injection, schedule: Q04DX004 (sc), vehicle: Klucel (hydroxypropylcellulose) (HPC)): 172 % of control
- T/C (dose: 24.0 mg/kg/injection, schedule: Q04DX004 (sc), vehicle: Klucel (hydroxypropylcellulose) (HPC)): 99 % of control
- T/C (dose: 48.0 mg/kg/injection, schedule: Q04DX004 (sc), vehicle: Klucel (hydroxypropylcellulose) (HPC)): 92 % of control

Compound: O=NN(CCF)C(=O)NC1CCCCC1
- T/C (dose: 6.25 mg/kg/injection, schedule: Q04DX004 (sc), vehicle: Klucel (hydroxypropylcellulose) (HPC)): 55 % of control
- T/C (dose: 12.5 mg/kg/injection, schedule: Q04DX004 (sc), vehicle: Klucel (hydroxypropylcellulose) (HPC)): 30 % of control
- T/C (dose: 25.0 mg/kg/injection, schedule: Q04DX004 (sc), vehicle: Klucel (hydroxypropylcellulose) (HPC)): 62 % of control

Compound: C=C1N(C)c2ccccc2C1(C)C
- T/C (dose: 50.0 mg/kg/injection, schedule: Q04DX004 (sc), vehicle: saline with Tween-80): 66 % of control
- T/C (dose: 100.0 mg/kg/injection, schedule: Q04DX004 (sc), vehicle: saline with Tween-80): 73 % of control
- T/C (dose: 200.0 mg/kg/injection, schedule: Q04DX004 (sc), vehicle: saline with Tween-80): 94 % of control

Compound: CN=S(=O)(OCCCCCOS(=O)(=NC)c1ccccc1)c1ccccc1 (stereo not drawn)
- T/C [1]: 66 % of control
- T/C (dose: 300.0 mg/kg/injection, schedule: Q04DX004 (sc), vehicle: saline with Tween-80): 60 % of control
- T/C [2]: 27 % of control

Compound: C[n+]1c(/C=N/NC(N)=S)ccc2ccccc21
- T/C [1]: 75 % of control
- T/C [2]: 66 % of control
- T/C (dose: 1200.0 mg/kg/injection, schedule: Q04DX004 (sc), vehicle: saline with Tween-80): 72 % of control

Compound: C[C@H]1C[C@@H]2[C@H]([C@@H](O)C[C@@]3(C)[C@H]2CC[C@]3(O)C(=O)CO)[C@@]2(C)C=CC(=O)C=C12
- T/C [3]: 69 % of control

Compound: CCCCCCCCCCC(OC(C)=O)C1CCC(C2CCC(C(O)CCCCCCCCCCCCC3C=C(C)OC3=O)O2)O1 (stereo not drawn)
- T/C (dose: 25.0 mg/kg/injection, schedule: Q04DX004 (sc), vehicle: water): 119 % of control
- T/C (dose: 50.0 mg/kg/injection, schedule: Q04DX004 (sc), vehicle: water): 92 % of control

Compound: N[C@@H](Cc1ccc(N(CCCl)CCCl)cc1)C(=O)O
- T/C (dose: 4.0 mg/kg/injection, schedule: Q04DX004 (ip), vehicle: saline): 47 % of control
- T/C (dose: 6.0 mg/kg/injection, schedule: Q04DX004 (ip), vehicle: saline): 9 % of control
- T/C (dose: 9.0 mg/kg/injection, schedule: Q04DX004 (ip), vehicle: saline): -5 % of control

Compound: CC[C@]1(O)C[C@H]2CN(CCc3c([nH]c4ccccc34)[C@@](C(=O)OC)(c3cc4c(cc3OC)N(C)[C@H]3[C@@](O)(C(=O)OC)[C@H](OC(C)=O)[C@]5(CC)C=CCN6CC[C@]43[C@@H]65)C2)C1
- T/C (dose: 0.25 mg/kg/injection, schedule: Q01DX010 (sc), vehicle: saline): 76 % of control
- T/C (dose: 0.5 mg/kg/injection, schedule: Q01DX010 (sc), vehicle: saline): 88 % of control
- T/C (dose: 1.0 mg/kg/injection, schedule: Q01DX010 (sc), vehicle: saline): 60 % of control

Compound: COCC1OC2OC3C(COC)OC(OC4C(COC)OC(OC5C(COC)OC(OC6C(COC)OC(OC7C(COC)OC(OC8C(COC)OC(OC1C(O)C2O)C(O)C8O)C(O)C7O)C(O)C6O)C(O)C5O)C(O)C4O)C(O)C3O (stereo not drawn) (tested in a mixture with another compound)
- T/C (dose: 100.0 mg/kg/injection, schedule: Q04DX004 (sc), vehicle: Klucel (hydroxypropylcellulose) (HPC)): 116 % of control
- T/C [3]: 67 % of control

Compound: c1ccc(CN2CCOC2)cc1
- T/C (dose: 25.0 mg/kg/injection, schedule: Q01DX010 (sc), vehicle: suspension in saline): 100 % of control
- T/C (dose: 50.0 mg/kg/injection, schedule: Q01DX010 (sc), vehicle: suspension in saline): 106 % of control
- T/C (dose: 100.0 mg/kg/injection, schedule: Q01DX010 (sc), vehicle: suspension in saline): 102 % of control

Compound: CC1(C)CC(=O)C(CSC(=O)c2ccccc2)C(=O)C1
- T/C (dose: 25.0 mg/kg/injection, schedule: Q01DX010 (sc), vehicle: Klucel (hydroxypropylcellulose) (HPC)): 79 % of control
- T/C (dose: 100.0 mg/kg/injection, schedule: Q01DX010 (sc), vehicle: Klucel (hydroxypropylcellulose) (HPC)): 120 % of control

Compound: COC(=O)C12OCC34C(CC5C(C)C6=CC(=O)OC6=CC5(C)C3C(O)C1O)OC(=O)C(OC(C)=O)C24 (stereo not drawn)
- T/C (dose: 1.25 mg/kg/injection, schedule: Q04DX004 (sc), vehicle: saline + alcohol): 115 % of control
- T/C (dose: 5.0 mg/kg/injection, schedule: Q04DX004 (sc), vehicle: saline + alcohol): 171 % of control
- T/C (dose: 10.0 mg/kg/injection, schedule: Q04DX004 (sc), vehicle: saline + alcohol): 165 % of control

— PubChem BioAssay AID206 (DTP/NCI, 2004)
